Source: ChEMBL document CHEMBL5532756, “Phenylthiazoles with potent & optimum selectivity toward Clostridium difficile” (RSC Med Chem, 2024)
Converted amounts (≈) assume the structure as drawn.

Legend:
[1] = tested on: Escherichia coli; assay: Antimicrobial activity against Escherichia coli BW25113; assay type: functional
[2] = tested on: Candida albicans; assay: Antimicrobial activity against Candida albicans ATCC 64124; assay type: functional
[3] = tested on: Clostridioides difficile; assay: Antimicrobial activity against Clostridioides difficile ATCC BAA-1870; assay type: functional
[4] = tested on: Neisseria gonorrhoeae; assay: Antimicrobial activity against Neisseria gonorrhoeae 194; assay type: functional
[5] = tested on: Staphylococcus aureus; assay: Antimicrobial activity against methicillin-resistant Staphylococcus aureus USA300; assay type: functional
[6] = tested on: Escherichia coli; assay: Antimicrobial activity against Escherichia coli JW55031 harboring TolC mutant; assay type: functional
[7] = tested on: Clostridioides difficile; assay: Antibacterial activity against Clostridioides difficile ATCC 43598; assay type: functional
[8] = tested on: Bacteroides fragilis; assay: Antibacterial activity against Bacteroides fragilis HM-709; assay type: functional
[9] = tested on: Bacteroides fragilis; assay: Antibacterial activity against Bacteroides fragilis HM-714; assay type: functional
[10] = tested on: Bifidobacterium breve; assay: Antibacterial activity against Bifidobacterium breve HM-411; assay type: functional
[11] = tested on: Lacticaseibacillus casei; assay: Antibacterial activity against Lactobacillus casei ATCC 334; assay type: functional
[12] = tested on: Lactobacillus gasseri; assay: Antibacterial activity against Lactobacillus gasseri HM-400; assay type: functional
[13] = tested on: Lactobacillus crispatus; assay: Antibacterial activity against Lactobacillus crispatus HM-420; assay type: functional
[14] = Antibacterial activity against Bifidobacterium longum subsp. Longum HM-845; assay type: functional
[15] = tested on: HRT-18 cell line; assay: Cytotoxicity against human HRT-18 cell line assessed as cell viability upto 64 ug/ml; assay type: toxicity, cell-based; details: dose < 64 µg/ml
[16] = tested on: Phocaeicola dorei; assay: Antibacterial activity against Bacteroides dorei HM-719; assay type: functional
[17] = tested on: Clostridioides difficile; assay: Antibacterial activity against Clostridioides difficile I 11; assay type: functional
[18] = tested on: Clostridioides difficile; assay: Antibacterial activity against Clostridioides difficile P7; assay type: functional
[19] = tested on: Bifidobacterium breve; assay: Antibacterial activity against Bifidobacterium breve HM-1120; assay type: functional
[20] = tested on: Clostridioides difficile; assay: Antibacterial activity against Clostridioides difficile I 13; assay type: functional
[21] = Cytotoxicity against African green monkey Vero cells assessed as cell viability at 0.5 to 64 ug/ml relative to control; assay type: toxicity, cell-based; details: chlorocebus sabaeus, at 0.5 to 64 µg/mL, dose 0.5-64 µg/ml, read-out: Activity

Cc1nc(-c2ccc3ccccc3c2)sc1-c1ccnc(N2CC[C@H](N(C)C)C2)n1
MIC [1]: > 64 µg/mL
MIC [2]: 32 µg/mL (≈ 77 µM)
MIC [3]: 32 µg/mL (≈ 77 µM)
MIC [4]: > 64 µg/mL
MIC [5]: 32 µg/mL (≈ 77 µM)
MIC [6]: > 64 µg/mL

Cc1nc(-c2ccc3ccccc3c2)sc1-c1ccnc(-c2ccccn2)n1
MIC [7]: 0.125 µg/mL (≈ 0.329 µM)
MIC [8]: > 64 µg/mL
MIC [9]: > 64 µg/mL
MIC [10]: > 64 µg/mL
MIC [1]: > 64 µg/mL
MIC [11]: > 64 µg/mL
MIC [12]: > 64 µg/mL
MIC [13]: > 64 µg/mL
MIC [14]: > 64 µg/mL
Activity [15]: Non-Toxic
MIC [16]: > 64 µg/mL
MIC [2]: > 64 µg/mL
MIC [17]: 0.03 µg/mL (≈ 0.0788 µM)
MIC [18]: 0.125 µg/mL (≈ 0.329 µM)
MIC [19]: > 64 µg/mL
MIC [3]: 0.03 µg/mL (≈ 0.0788 µM)
MIC [4]: > 64 µg/mL
MIC [20]: 0.06 µg/mL (≈ 0.158 µM)
viability [21]: 100%
MIC [5]: > 64 µg/mL
MIC [6]: > 64 µg/mL

Cc1nc(-c2ccc3ccccc3c2)sc1-c1ccnc(-c2cccnc2)n1
MIC [1]: > 64 µg/mL
MIC [2]: > 64 µg/mL
MIC [3]: > 64 µg/mL
MIC [4]: > 64 µg/mL
MIC [5]: > 64 µg/mL
MIC [6]: > 64 µg/mL

Cc1nc(-c2ccc3ccccc3c2)sc1-c1ccnc(N2CC[C@@H](N(C)C)C2)n1
MIC [1]: 64 µg/mL (≈ 154 µM)
MIC [2]: 64 µg/mL (≈ 154 µM)
MIC [3]: 64 µg/mL (≈ 154 µM)
MIC [4]: > 64 µg/mL
MIC [5]: 32 µg/mL (≈ 77 µM)
MIC [6]: > 64 µg/mL

Cc1nc(-c2ccc3ccccc3c2)sc1-c1ccnc(NC[C@H](O)CO)n1
MIC [1]: > 64 µg/mL
MIC [2]: > 64 µg/mL
MIC [3]: 64 µg/mL (≈ 163 µM)
MIC [4]: > 64 µg/mL
MIC [5]: > 64 µg/mL
MIC [6]: > 64 µg/mL

CN[C@H](CC(C)C)C(=O)N[C@H]1C(=O)N[C@@H](CC(N)=O)C(=O)N[C@H]2C(=O)N[C@H]3C(=O)N[C@H](C(=O)N[C@H](C(=O)O)c4cc(O)cc(O)c4-c4cc3ccc4O)[C@H](O)c3ccc(c(Cl)c3)Oc3cc2cc(c3O[C@@H]2O[C@H](CO)[C@@H](O)[C@H](O)[C@H]2O[C@H]2C[C@](C)(N)[C@H](O)[C@H](C)O2)Oc2ccc(cc2Cl)[C@H]1O [VANCOMYCIN]
MIC [7]: 0.5 µg/mL (≈ 0.345 µM)
MIC [8]: 8 µg/mL (≈ 5.52 µM)
MIC [9]: 8 µg/mL (≈ 5.52 µM)
MIC [10]: 0.25 µg/mL (≈ 0.173 µM)
MIC [11]: > 8 µg/mL
MIC [12]: > 8 µg/mL
MIC [13]: 0.5 µg/mL (≈ 0.345 µM)
MIC [14]: 0.125 µg/mL (≈ 0.0863 µM)
MIC [16]: 8 µg/mL (≈ 5.52 µM)
MIC [17]: 0.5 µg/mL (≈ 0.345 µM)
MIC [18]: 0.5 µg/mL (≈ 0.345 µM)
MIC [19]: 0.25 µg/mL (≈ 0.173 µM)
MIC [3]: 1 µg/mL (≈ 0.69 µM)
MIC [20]: 0.5 µg/mL (≈ 0.345 µM)

Cc1nc(-c2ccc3ccccc3c2)sc1-c1ccnc(NCCCO)n1
MIC [1]: > 64 µg/mL
MIC [2]: > 64 µg/mL
MIC [3]: 64 µg/mL (≈ 170 µM)
MIC [4]: > 64 µg/mL
MIC [5]: > 64 µg/mL
MIC [6]: > 64 µg/mL

Cc1nc(-c2ccc3ccccc3c2)sc1-c1ccnc(NC(CO)CO)n1
MIC [1]: > 64 µg/mL
MIC [2]: > 64 µg/mL
MIC [3]: 64 µg/mL (≈ 163 µM)
MIC [4]: 64 µg/mL (≈ 163 µM)
MIC [5]: > 64 µg/mL
MIC [6]: > 64 µg/mL

Cc1nc(-c2ccc3ccccc3c2)sc1-c1ccnc(N2CCC(N)C2)n1 (stereo unspecified)
MIC [1]: > 64 µg/mL
MIC [2]: 8 µg/mL (≈ 20.6 µM)
MIC [3]: 16 µg/mL (≈ 41.3 µM)
MIC [4]: > 64 µg/mL
MIC [5]: 8 µg/mL (≈ 20.6 µM)
MIC [6]: > 64 µg/mL

Cc1nc(-c2ccc3ccccc3c2)sc1-c1ccnc(NCCCN)n1
MIC [1]: > 64 µg/mL
MIC [2]: > 64 µg/mL
MIC [3]: 64 µg/mL (≈ 170 µM)
MIC [4]: > 64 µg/mL
MIC [5]: > 64 µg/mL
MIC [6]: > 64 µg/mL

Cc1nc(-c2ccc3ccccc3c2)sc1-c1ccnc(NCCN(C)C)n1
MIC [1]: > 64 µg/mL
MIC [2]: 16 µg/mL (≈ 41.1 µM)
MIC [3]: 16 µg/mL (≈ 41.1 µM)
MIC [4]: > 64 µg/mL
MIC [5]: 16 µg/mL (≈ 41.1 µM)
MIC [6]: 16 µg/mL (≈ 41.1 µM)

Cc1nc(-c2ccc3ccccc3c2)sc1-c1ccnc(N[C@@H]2CCCC[C@@H]2N)n1 (relative stereo)
MIC [1]: > 64 µg/mL
MIC [2]: 8 µg/mL (≈ 19.3 µM)
MIC [3]: 8 µg/mL (≈ 19.3 µM)
MIC [4]: 32 µg/mL (≈ 77 µM)
MIC [5]: 4 µg/mL (≈ 9.63 µM)
MIC [6]: 8 µg/mL (≈ 19.3 µM)

Cc1nc(-c2ccc3ccccc3c2)sc1-c1ccnc(NCC(O)CO)n1 (racemic)
MIC [1]: > 64 µg/mL
MIC [2]: > 64 µg/mL
MIC [3]: 8 µg/mL (≈ 20.4 µM)
MIC [4]: 64 µg/mL (≈ 163 µM)
MIC [5]: > 64 µg/mL
MIC [6]: > 64 µg/mL

Cc1nc(-c2ccc3ccccc3c2)sc1-c1ccnc(N2CCC[C@@H]2C(N)=O)n1
MIC [1]: > 64 µg/mL
MIC [2]: > 64 µg/mL
MIC [3]: 64 µg/mL (≈ 154 µM)
MIC [4]: > 64 µg/mL
MIC [5]: > 64 µg/mL
MIC [6]: 64 µg/mL (≈ 154 µM)

Cc1nc(-c2ccc3ccccc3c2)sc1-c1ccnc(N2CCC[C@H]2CO)n1
MIC [1]: > 64 µg/mL
MIC [2]: > 64 µg/mL
MIC [3]: 64 µg/mL (≈ 159 µM)
MIC [4]: > 64 µg/mL
MIC [5]: > 64 µg/mL
MIC [6]: > 64 µg/mL

Cc1nc(-c2ccc3ccccc3c2)sc1-c1ccnc(NCCO)n1
MIC [1]: > 64 µg/mL
MIC [2]: 1 µg/mL (≈ 2.76 µM)
MIC [3]: 64 µg/mL (≈ 177 µM)
MIC [4]: > 64 µg/mL
MIC [5]: > 64 µg/mL
MIC [6]: > 64 µg/mL

Cc1nc(-c2ccc3ccccc3c2)sc1-c1ccnc(N[C@H]2CC[C@H](N)CC2)n1
MIC [1]: > 64 µg/mL
MIC [2]: 16 µg/mL (≈ 38.5 µM)
MIC [3]: 32 µg/mL (≈ 77 µM)
MIC [4]: > 64 µg/mL
MIC [5]: 8 µg/mL (≈ 19.3 µM)
MIC [6]: > 64 µg/mL

Cc1nc(-c2ccc3ccccc3c2)sc1-c1ccnc(N2CCC[C@H]2C(N)=O)n1
MIC [1]: > 64 µg/mL
MIC [2]: > 64 µg/mL
MIC [3]: 64 µg/mL (≈ 154 µM)
MIC [4]: > 64 µg/mL
MIC [5]: > 64 µg/mL
MIC [6]: > 64 µg/mL

Cc1ncc([N+](=O)[O-])n1CCO [METRONIDAZOLE]
MIC [7]: 0.25 µg/mL (≈ 1.46 µM)
MIC [8]: 1 µg/mL (≈ 5.84 µM)
MIC [9]: 1 µg/mL (≈ 5.84 µM)
MIC [10]: > 8 µg/mL
MIC [11]: > 8 µg/mL
MIC [12]: > 8 µg/mL
MIC [13]: > 8 µg/mL
MIC [14]: 0.5 µg/mL (≈ 2.92 µM)
MIC [16]: 0.25 µg/mL (≈ 1.46 µM)
MIC [17]: 0.5 µg/mL (≈ 2.92 µM)
MIC [18]: 0.25 µg/mL (≈ 1.46 µM)
MIC [19]: > 8 µg/mL
MIC [3]: 0.25 µg/mL (≈ 1.46 µM)
MIC [20]: 0.25 µg/mL (≈ 1.46 µM)

Cc1nc(-c2ccc3ccccc3c2)sc1-c1ccnc(N2CCCCC2CN)n1 (stereo unspecified)
MIC [1]: > 64 µg/mL
MIC [2]: 16 µg/mL (≈ 38.5 µM)
MIC [3]: 64 µg/mL (≈ 154 µM)
MIC [4]: > 64 µg/mL
MIC [5]: > 64 µg/mL
MIC [6]: > 64 µg/mL

Cc1nc(-c2ccc3ccccc3c2)sc1-c1ccnc(-c2ccncc2)n1
MIC [1]: > 64 µg/mL
MIC [2]: > 64 µg/mL
MIC [3]: > 64 µg/mL
MIC [4]: > 64 µg/mL
MIC [5]: > 64 µg/mL
MIC [6]: > 64 µg/mL

Cc1nc(-c2ccc3ccccc3c2)sc1-c1ccnc(NCC(=N)N)n1
MIC [1]: > 64 µg/mL
MIC [2]: > 64 µg/mL
MIC [3]: 32 µg/mL (≈ 85.5 µM)
MIC [4]: > 64 µg/mL
MIC [5]: > 64 µg/mL
MIC [6]: > 64 µg/mL

Cc1nc(-c2ccc3ccccc3c2)sc1-c1ccnc(N2CCC[C@@H]2CO)n1
MIC [1]: > 64 µg/mL
MIC [2]: > 64 µg/mL
MIC [3]: 64 µg/mL (≈ 159 µM)
MIC [4]: 32 µg/mL (≈ 79.5 µM)
MIC [5]: > 64 µg/mL
MIC [6]: > 64 µg/mL

Cc1nc(-c2ccc3ccccc3c2)sc1-c1ccnc(NC[C@@H](O)CO)n1
MIC [1]: > 64 µg/mL
MIC [2]: > 64 µg/mL
MIC [3]: 64 µg/mL (≈ 163 µM)
MIC [4]: > 64 µg/mL
MIC [5]: > 64 µg/mL
MIC [6]: > 64 µg/mL

Cc1nc(-c2ccc3ccccc3c2)sc1-c1ccnc(N[C@@H]2CCCC[C@H]2N)n1 (relative stereo)
MIC [1]: > 64 µg/mL
MIC [2]: 8 µg/mL (≈ 19.3 µM)
MIC [3]: 16 µg/mL (≈ 38.5 µM)
MIC [4]: 64 µg/mL (≈ 154 µM)
MIC [5]: 4 µg/mL (≈ 9.63 µM)
MIC [6]: 8 µg/mL (≈ 19.3 µM)
